Results from US20080262037A1, “Piperidine Derivatives for the Treatment of Chemokine Mediated Disease” (ASTRAZENECA AB, priority 2004, published 2008).
Where a name gives a salt, the structure may show the parent alone.

Molecular target: T1, human H1 receptor (Homo sapiens, UniProt P35367)
T1 construct: purchased Euroscreen SA, Brussels, Belgium ES-390-M; host or cells: CHO-K1 cells (membranes)
Assay: Histamine H1 receptor binding, competition displacement of [3H]-pyrilamine
Details: displacement of 1 nM [3H]-pyrilamine; membranes from recombinant CHO-K1 cells expressing the human H1 receptor; 1 hour at room temperature; read-out: H1 pKi/[1328_S] (converted)

T1 sequence (P35367 whole entry): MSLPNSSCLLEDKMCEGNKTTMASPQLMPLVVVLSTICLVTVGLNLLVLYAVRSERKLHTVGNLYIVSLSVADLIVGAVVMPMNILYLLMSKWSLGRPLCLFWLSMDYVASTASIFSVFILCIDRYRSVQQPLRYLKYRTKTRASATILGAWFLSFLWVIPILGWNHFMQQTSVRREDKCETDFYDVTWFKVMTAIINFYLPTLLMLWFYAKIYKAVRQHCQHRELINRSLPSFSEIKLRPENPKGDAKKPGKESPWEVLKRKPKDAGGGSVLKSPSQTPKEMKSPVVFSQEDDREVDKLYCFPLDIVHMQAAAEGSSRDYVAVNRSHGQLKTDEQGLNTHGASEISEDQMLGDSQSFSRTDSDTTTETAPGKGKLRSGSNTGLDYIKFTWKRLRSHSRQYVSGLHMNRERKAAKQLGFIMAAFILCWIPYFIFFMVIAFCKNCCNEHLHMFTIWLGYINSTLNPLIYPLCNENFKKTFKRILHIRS

Ki [nM] | Compound
12.6 | COc1ccc(CC(=O)O)cc1N1CCC(CN2CCC(Oc3ccc(Cl)c(Cl)c3)CC2)CC1 [Example 23, [3-(4-{[4-(3,4-Dichlorophenoxy)piperidin-1-yl]methyl}piperidin-1-yl)-4-methoxyphenyl]acetic acid]
10 | C[C@@H](Oc1ccccc1N1CCC(CN2CCC(Oc3ccc(Cl)c(Cl)c3)CC2)CC1)C(=O)O [Example 28, (2R)-2-[2-(4-{[4-(3,4-Dichlorophenoxy)piperidin-1-yl]methyl}piperidin-1-yl)phenoxy]propanoic acid]
12.6 | C[C@H](Oc1ccccc1N1CCC(CN2CCC(Oc3ccc(Cl)c(Cl)c3)CC2)CC1)C(=O)O [Example 29, (2S)-2-[2-(4-{[4-(3,4-Dichlorophenoxy)piperidin-1-yl]methyl}piperidin-1-yl)phenoxy]propanoic acid]
2 | O=C(O)COc1ccc(Cl)cc1N1CCC(CN2CCC(Oc3ccc(Cl)c(Cl)c3)CC2)CC1 [Example 39, (4-Chloro-2-{4-[4-(3,4-dichloro-phenoxy)-piperidin-1-ylmethyl]-piperidin-1-yl}-phenoxy)-acetic acid hydrochloride]
3.16 | O=C(O)COc1c(Cl)cccc1N1CCC(CN2CCC(Oc3ccc(Cl)c(Cl)c3)CC2)CC1 [Example 40, (2-chloro-6-{4-[4-(3,4-dichloro-phenoxy)-piperidin-1-ylmethyl]-piperidin-1-yl}-phenoxy)-acetic acid]

The next lines start with the compound.

Compound | Ki [nM]
CC(C)(Oc1ccccc1N1CCC(CN2CCC(Oc3ccc(Cl)c(Cl)c3)CC2)CC1)C(=O)O [Example 27, 2-[2-(4-{[4-(3,4-Dichlorophenoxy)piperidin-1-yl]methyl}piperidin-1-yl)phenoxy]-2-methylpropanoic acid] | 31.6
C[C@@H](Oc1cccc(N2CCC(CN3CCC(Oc4ccc(Cl)c(Cl)c4)CC3)CC2)c1)C(=O)O [Example 30, (2R)-2-[3-(4-{[4-(3,4-Dichlorophenoxy)piperidin-1-yl]methyl}piperidin-1-yl)phenoxy]propanoic acid] | 12.6
Cc1c(OC2CCN(CC3CCN(c4ccc(CC(=O)O)cc4)CC3)CC2)ccc(Cl)c1Cl [Example 33, [4-(4-{[4-(3,4-Dichloro-2-methylphenoxy)piperidin-1-yl]methyl}piperidin-1-yl)phenyl]acetic acid] | 12.6
Cc1c(OC2CCN(CC3CCN(c4cccc(O[C@H](C)C(=O)O)c4)CC3)CC2)ccc(C#N)c1Cl [Example 37, (2R)-2-[3-(4-{[4-(3-Chloro-4-cyano-2-methylphenoxy)piperidin-1-yl]methyl}piperidin-1-yl)phenoxy]propanoic acid] | 398
Cc1c(OC2CCN(CC3CCN(c4cccc(O[C@@H](C)C(=O)O)c4)CC3)CC2)ccc(Cl)c1Cl [Example 44, (2S)-2-[3-(4-{[4-(3,4-dichloro-2-methylphenoxy)piperidin-1-yl]methyl}piperidin-1-yl)phenoxy]propanoic acid] | 20
